Measured values from patent US8153809B2, “Dihydropyridone ureas as P2X7 modulators” (Roche Palo Alto LLC, priority 2008, dated 2012).

Molecular target: T1, P2X7 (UniProt Q99572)
T1 sequence (Q99572 1-595): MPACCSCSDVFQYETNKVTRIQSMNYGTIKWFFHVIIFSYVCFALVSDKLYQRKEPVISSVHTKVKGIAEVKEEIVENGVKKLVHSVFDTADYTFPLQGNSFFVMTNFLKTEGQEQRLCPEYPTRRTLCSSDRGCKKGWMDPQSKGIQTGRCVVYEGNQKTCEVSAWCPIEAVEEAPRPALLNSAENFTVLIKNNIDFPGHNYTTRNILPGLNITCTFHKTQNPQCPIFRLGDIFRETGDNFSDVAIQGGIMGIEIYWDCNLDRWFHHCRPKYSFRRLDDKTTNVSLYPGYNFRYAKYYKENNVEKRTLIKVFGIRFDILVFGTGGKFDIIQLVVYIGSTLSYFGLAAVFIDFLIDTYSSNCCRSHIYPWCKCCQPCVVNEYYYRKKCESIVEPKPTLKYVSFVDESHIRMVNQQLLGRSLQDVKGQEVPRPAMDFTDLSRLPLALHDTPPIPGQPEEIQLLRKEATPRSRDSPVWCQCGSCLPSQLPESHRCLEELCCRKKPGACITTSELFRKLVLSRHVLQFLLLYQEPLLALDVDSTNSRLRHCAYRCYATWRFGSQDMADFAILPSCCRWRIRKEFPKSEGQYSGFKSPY
Experiment: pIC50 values for P2X7 (Table 1)
Type: cell-based
In short: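 Fluo-3-loaded 1321N1 cells expressing human P2X7 or HEK293 cells expressing rat P2X7, preincubated 20 min at room temperature with antagonist in HBSS/Hepes/probenecid buffer with 2 mM CaCl2. BzATP agonist at 100 μM final (human) or 5 μM final (rat); fluorescence read 5 min, peak normalized to 5 μM ionomycin response.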

Structure (SMILES) | pIC50
O=C1C=CN(C(=O)Nc2ccsc2Br)C(c2ccc(F)cc2)C1 (centres unmarked) [Compound 86, 2-(4-Fluoro-phenyl)-4-oxo-3,4-dihydro-2H-pyridine-1-carboxylic acid (2-bromo-thiophen-3-yl)-amide] | 6.725
O=C1C=CN(C(=O)Nc2cc(F)c(Cl)cc2Br)[C@H](c2ccc(F)cc2)C1 [Compound 18, (S)-2-(4-Fluoro-phenyl)-4-oxo-3,4-dihydro-2H-pyridine-1-carboxylic acid (2-bromo-4-chloro-5-fluoro-phenyl)-amide] | 6.286
O=C1C=CN(C(=O)Nc2cc3c(cc2Br)OCO3)C(c2ccc(F)cc2)C1 (centres unmarked) [Compound 37] | 7.457
O=C1C=CN(C(=O)Nc2c(F)cccc2F)C(c2ccc(F)cc2)C1 (centres unmarked) [Compound 62, 2-(4-Fluoro-phenyl)-4-oxo-3,4-dihydro-2H-pyridine-1-carboxylic acid (2,6-difluoro-phenyl)-amide] | 5.51
O=C1C=CN(C(=O)Nc2c(F)cc(F)cc2Br)C(c2ccc(F)cc2)C1 (centres unmarked) [Compound 85, 2-(4-Fluoro-phenyl)-4-oxo-3,4-dihydro-2H-pyridine-1-carboxylic acid (2-bromo-4,6-difluoro-phenyl)-amide] | 5
COc1cc(NC(=O)N2C=CC(=O)C[C@H]2c2cc(F)cc(F)c2)c(Br)cc1C (stereo in doubt) [Compound 47, 2-(3,5-Difluoro-phenyl)-4-oxo-3,4-dihydro-2H-pyridine-1-carboxylic acid (2-bromo-5-methoxy-4-methyl-phenyl)-amide] | 6.987
Cc1cc(Br)c(NC(=O)N2C=CC(=O)C[C@H]2c2ccc(F)cc2)cc1C(=O)OC(C)(C)C [Compound 77, 4-Bromo-5-{[(S)-2-(4-fluoro-phenyl)-4-oxo-3,4-dihydro-2H-pyridine-1-carbonyl]amino}-2-methyl-benzoic acid tert-butyl ester] | 6.67
COc1cc(NC(=O)N2C=CC(=O)C[C@H]2c2ccc(F)cc2)c(Br)cc1F [Compound 6, (S)-2-(4-Fluoro-phenyl)-4-oxo-3,4-dihydro-2H-pyridine-1-carboxylic acid (2-bromo-4-fluoro-5-methoxy-phenyl)-amide] | 7.5
COc1cc(NC(=O)N2C=CC(=O)C[C@H]2c2cccc(F)c2)c(Br)cc1C [Compound 29, (S)-2-(3-Fluoro-phenyl)-4-oxo-3,4-dihydro-2H-pyridine-1-carboxylic acid (2-bromo-5-methoxy-4-methyl-phenyl)-amide] | 7.93
COc1cc(NC(=O)N2C=CC(=O)C[C@H]2c2ccc(F)cc2)c(Cl)cc1Cl [Compound 7, (S)-2-(4-Fluoro-phenyl)-4-oxo-3,4-dihydro-2H-pyridine-1-carboxylic acid (2,4-dichloro-5-methoxy-phenyl)-amide] | 6.73
O=C1C=CN(C(=O)Nc2cc(O)c(Cl)cc2Br)[C@H](c2ccc(F)cc2)C1 [Compound 24, (S)-2-(4-Fluoro-phenyl)-4-oxo-3,4-dihydro-2H-pyridine-1-carboxylic acid (2-bromo-4-chloro-5-hydroxy-phenyl)-amide] | 6.71
COc1cc(NC(=O)N2C=CC(=O)C[C@H]2c2cccc(F)c2)ccc1Cl [Compound 72, (S)-2-(3-Fluoro-phenyl)-4-oxo-3,4-dihydro-2H-pyridine-1-carboxylic acid (4-chloro-3-methoxy-phenyl)-amide] | 6.295
COc1cc(Br)c(NC(=O)N2C=CC(=O)CC2c2ccccc2)cc1OC (centres unmarked) [Compound 1, 4-Oxo-2-phenyl-3,4-dihydro-2H-pyridine-1-carboxylic acid (2-bromo-4,5-dimethoxy-phenyl)-amide] | 7.408
COc1cc(NC(=O)N2C=CC(=O)C[C@H]2c2ccccc2)c(Br)cc1Cl [Compound 4, (S)-4-Oxo-2-phenyl-3,4-dihydro-2H-pyridine-1-carboxylic acid (2-bromo-4-chloro-5-methoxy-phenyl)-amide] | 7.476
Cc1cc(F)c(NC(=O)N2C=CC(=O)C[C@H]2c2ccc(F)cc2)cc1OCCO [Compound 59, (S)-2-(4-Fluoro-phenyl)-4-oxo-3,4-dihydro-2H-pyridine-1-carboxylic acid [2-fluoro-5-(2-hydroxy-ethoxy)-4-methyl-phenyl]-amide] | 6.62
COc1ccc(C)c(NC(=O)N2C=CC(=O)C[C@H]2c2cccc(F)c2)c1 [Compound 53, (S)-2-(3-Fluoro-phenyl)-4-oxo-3,4-dihydro-2H-pyridine-1-carboxylic acid (5-methoxy-2-methyl-phenyl)-amide] | 8.01
COc1cc(NC(=O)N2C=CC(=O)C[C@H]2c2ccc(F)cc2)c(F)cc1C [Compound 49, (S)-2-(4-Fluoro-phenyl)-4-oxo-3,4-dihydro-2H-pyridine-1-carboxylic acid (2-fluoro-5-methoxy-4-methyl-phenyl)-amide] | 7.21
COc1cc(NC(=O)N2C=CC(=O)CC2c2ccc(F)c(F)c2)c(Br)cc1C (centres unmarked) [Compound 44, 2-(3,4-Difluoro-phenyl)-4-oxo-3,4-dihydro-2H-pyridine-1-carboxylic acid (2-bromo-5-methoxy-4-methyl-phenyl)-amide] | 7.383
COC(=O)c1cc(Br)c(NC(=O)N2C=CC(=O)C[C@H]2c2cccc(F)c2)cc1OC [Compound 39, 5-Bromo-4-{[(S)-2-(3-fluoro-phenyl)-4-oxo-3,4-dihydro-2H-pyridine-1-carbonyl]-amino}-2-methoxy-benzoic acid methyl ester] | 7.06

More lines, now with the values ahead:

pIC50 | Structure (SMILES)
5.91 | COc1ccccc1NC(=O)N1C=CC(=O)CC1c1ccc(F)cc1 (centres unmarked) [Compound 105, 2-(4-Fluoro-phenyl)-4-oxo-3,4-dihydro-2H-pyridine-1-carboxylic acid (2-methoxy-phenyl)-amide]
5.505 | Cc1nc2cc(NC(=O)N3C=CC(=O)CC3c3ccc(F)cc3)ccc2s1 (centres unmarked) [Compound 113, 2-(4-Fluoro-phenyl)-4-oxo-3,4-dihydro-2H-pyridine-1-carboxylic acid (2-methyl-benzothiazol-5-yl)-amide]
7.57 | Cn1ccc2ccc(NC(=O)N3C=CC(=O)C[C@H]3c3ccc(F)cc3)cc21 [Compound 101, (S)-2-(4-Fluoro-phenyl)-4-oxo-3,4-dihydro-2H-pyridine-1-carboxylic acid (1-methyl-1H-indol-6-yl)-amide]
7.12 | Cc1cc(F)c(F)cc1NC(=O)N1C=CC(=O)C[C@H]1c1ccc(F)cc1 [Compound 155, (S)-2-(4-Fluoro-phenyl)-4-oxo-3,4-dihydro-2H-pyridine-1-carboxylic acid (4,5-difluoro-2-methyl-phenyl)-amide]
7.79 | Cc1c(CO)cccc1NC(=O)N1C=CC(=O)C[C@H]1c1ccc(F)cc1 [Compound 139, (S)-2-(4-Fluoro-phenyl)-4-oxo-3,4-dihydro-2H-pyridine-1-carboxylic acid (3-hydroxymethyl-2-methyl-phenyl)-amide]
7.16 | Cc1c(NC(=O)N2C=CC(=O)C[C@H]2c2ccc(F)cc2)ccc2ncccc12 [Compound 125, (S)-2-(4-Fluoro-phenyl)-4-oxo-3,4-dihydro-2H-pyridine-1-carboxylic acid (5-methyl-quinolin-6-yl)-amide]
8.095 | O=C1C=CN(C(=O)Nc2cc3c(cc2Br)OCCO3)[C@H](c2ccc(F)cc2)C1 [Compound 136, (S)-2-(4-Fluoro-phenyl)-4-oxo-3,4-dihydro-2H-pyridine-1-carboxylic acid (7-bromo-2,3-dihydro-benzo[1,4]dioxin-6-yl)-amide]
7.05 | COc1ccc(NC(=O)N2C=CC(=O)C[C@H]2c2ccc(F)cc2)c(C)c1 [Compound 100, (S)-2-(4-Fluoro-phenyl)-4-oxo-3,4-dihydro-2H-pyridine-1-carboxylic acid (4-methoxy-2-methyl-phenyl)-amide]
7.85 | CCc1cc2ncccc2cc1NC(=O)N1C=CC(=O)C[C@H]1c1ccc(F)cc1 [Compound 153, (S)-2-(4-Fluoro-phenyl)-4-oxo-3,4-dihydro-2H-pyridine-1-carboxylic acid (7-ethyl-quinolin-6-yl)-amide]
8.445 | CCc1c(NC(=O)N2C=CC(=O)C[C@H]2c2ccc(F)cc2)ccc2ncccc12 [Compound 149, (S)-2-(4-Fluoro-phenyl)-4-oxo-3,4-dihydro-2H-pyridine-1-carboxylic acid (5-ethyl-quinolin-6-yl)-amide]
5.505 | Cn1cc2ccc(NC(=O)N3C=CC(=O)C[C@H]3c3cccc(F)c3)cc2n1 [Compound 147, (S)-2-(3-Fluoro-phenyl)-4-oxo-3,4-dihydro-2H-pyridine-1-carbxoylic acid (2-methyl-2H-indazol-6-yl)-amide]
8.57 | COc1cccc(NC(=O)N2C=CC(=O)C[C@H]2c2ccc(F)cc2)c1C [Compound 132, (S)-2-(4-Fluoro-phenyl)-4-oxo-3,4-dihydro-2H-pyridine-1-carboxylic acid (3-methoxy-2-methyl-phenyl)-amide]
6.98 | CC(=O)NCc1cc(NC(=O)N2C=CC(=O)C[C@H]2c2ccc(F)cc2)c(C)cc1Cl [Compound 124, (S)-2-(4-Fluoro-phenyl)-4-oxo-3,4-dihydro-2H-pyridine-1-carboxylic acid [5-(acetylamino-methyl)-4-chloro-2-methyl-phenyl]-amide]
